The experiment has as its system methicillin-resistant Staphylococcus aureus (MRSA) (ATCC BAA-44). Nature of the experiment: MIC assay, broth microdilution with resazurin. Type of experiment: cell-based. Conditions: Mueller Hinton broth, 20-44 h at 37° C. Background: Broth dilution looks for growth in wells or tubes with falling amounts of substance.

Values after ≈ are worked out from the molar mass of the structure shown.

Description: Antimicrobial assay antimicrobial activities of the polymers were determined by the minimal inhibitory concentration (MIC) assay. MIC of Mycobacterium smegmatis (ATCC 700084), Shigella flexneri (ATCC 9199), Staphylococcus aureus (ATCC 14775) and methicillin-resistant Staphylococcus aureus (MRSA) (ATCC BAA-44) were determined by the standard broth microdilution method with slight modification. In brief, different bacteria were grown in either Mueller Hinton broth (MHB) or 7H9 broth (M. smegmatis) overnight at 37° C. Next day, the cells were first OD600 adjusted to 0.1 and then further diluted 1:100 in the respective media and 50 μL (˜10^5 CFU) is added to 96 well-microplate wells containing 50 μL serial dilutions of the polymers. The plates were incubated for 20-44 h at 37° C. MIC is defined as the lowest concentration of the polymer that inhibits the visual growth of the bacteria. To aid in determining the visual growth of bacteria, resazurin, a red-ox dye is added to the wells at a final concentration of 0.02% and incubated for 4-8 h at 37° C. In the presence of viable cells, resazurin (blue) is reduced to resorfurin (pink) along with an increase in fluorescence. MIC was calculated as the lowest concentration of the polymer that prevented the color change and reduced the fluorescence (Ex 540, Em 590 nm) by 90% when compared to the control wells containing no inhibitor. […]

With `O=C(O)c1cn(C2CC2)c2cc(N3CCNCC3)c(F)cc2c1=O` [Ciprofloxacin], the “MIC MRSA” value was found to be 20 µg/mL (≈ 60.4 µM).
